In US20250326720A1, “CAREBASTINE SALT AND USE OF SAME” (priority 2022, published 2025):
≈ marks a conversion by molar mass, not a printed value. Where a name gives a salt, the structure may show the parent alone. Read-outs that look alike come from different tables or passages of the source. Marks after values point to notes of the source that are not given here.

Columns and labels:
[1] = Stability study (influencing factors, HPLC purity); assay type: physicochemical; conditions: for Purity Day 12 under high temperature / Purity Day 12 under light / Purity Day 0 / Purity Day 12 under high humidity: HPLC; for Purity Day 12 under high temperature: 60° C.; for Purity Day 12 under light / stability under light: 5000Lux; for Purity Day 12 under high humidity: RH80%
Text: Carebastine (Comparative Example 2, Comparative Example 2′), carebastine potassium salt (Example 1), and carebastine p-toluenesulfonate (Example 3, Example 5).
Three samples of each of carebastine (Comparative Example 2), refined carebastine (Comparative Example 2′), carebastine potassium salt (Example 1), carebastine p-toluenesulfonate (Example 3), and carebastine p-toluenesulfonate (Example 5) were weighed and placed in weighing flasks. The samples of each group were placed under high temperature (60° C.), high humidity (RH80%), and light (5000Lux) conditions, and the samples were taken for testing after 12 days. Note: The refined carebastine of Comparative Example 2′ can be prepared by column chromatography of Comparative Example 2 using common technical means in the related art.
Detection method: An appropriate amount of each of the samples was weighed accurately, and is dissolved in acetonitrile and quantitatively diluted to a solution containing about 0.08 mg per 1 ml. The detection was carried out using high performance liquid chromatography, octadecylsilane bonded silica gel as a filler, and water-acetonitrile (1:1) as a mobile phase, under a detection wavelength of 256 nm, column temperature of 35° C., and injection volume of 10 μL. Each sample solution was injected into the liquid chromatograph and the chromatogram was recorded.

[2] = Hygroscopicity study; assay type: physicochemical; conditions: 25° C.±1° C., relative humidity 80%, 24 hours
Method: The preparation of carebastine hydrochloride refers to the description of patent U.S. Pat. No. 6,340,761, and the purity is 99% or more. […] (2) An appropriate amount of the sample was spread flat in the weighing bottle. […] (3) The weighing bottle was opened and placed with the lid under the above constant temperature and humidity conditions for 24 hours. (4) The lid was put on the weighing bottle and the weight was accurately weighed (m3).

[3] = tested on: KM mice; conditions: for Mortality rate of mice / Number of surviving mice / abnormalities during observation period and in gross anatomical observation: single intragastric; for Mortality rate of mice / Number of surviving mice: 14 days observation; for Number of surviving mice: 10 mice per group; for abnormalities during observation period and in gross anatomical observation: low dose, mice
Method: All drugs were administered by intragastric administration, and the blank control group was administered with an equal volume of 0.5% CMC-Na solution. All animals were fasted for 12 hours before administration, but were allowed to drink water freely.
After administration, the mice were kept and observed for 14 days, and the toxic reactions (such as death) of the mice were observed and recorded every day. After the observation period, all surviving animals were dissected to observe whether there were obvious lesions in each organ.

[4] = tested on: histamine-induced shock in guinea pigs; experiment: Histamine-induced shock test in guinea pigs; assay type: in vivo; conditions: gavage, equimolar to 1.00 mg/kg ebastine, histamine phosphate i.v. one hour after administration, n = 10; for Time of accelerated respiration: x ± s
Method: One hour after administration, 0.125 wt. % histamine phosphate saline solution was injected intravenously into lateral sides of hind paws of the guinea pigs at 2 ml/kg. After the injection was completed within 10 s, a stopwatch was used immediately to observe the latency period for the guinea pigs to develop accelerated respiration and collapse with convulsions.

[5] = assay type: in vivo; conditions: SD rats
Method: Twenty-four SD rats weighing about 180 g to 200 g were randomly divided into 4 groups, with 6 rats in each group, half of which were male and half were female. The rats were given the corresponding drugs by intragastric administration.
The rats were fasted for 12 hours before administration, but were allowed to drink water freely.
Preparation of test substances: The preparation of test substances was carried out on the workbench in the related art in the preparation room.
Blank blood was collected before administration, and blood was collected at predetermined time points of 0.25 h, 0.5 h, 0.75 h, 1 h, 2 h, 3 h, 4 h, 6 h, 8 h, 10 h, and 24 h after administration. About 0.5 mL of blood was collected and placed in an EDTA-K2 tube, and the plasma was separated by centrifugation and stored at −80° C. The prototype and the metabolite, namely, carebastine, in a plasma sample were detected and analyzed by liquid chromatography-mass spectrometry (LC-MS/MS), and pharmacokinetic parameters were calculated.

[6] = Solubility test in different media; assay type: physicochemical
Method: Carebastine (Comparative Example 2) and carebastine p-toluenesulfonate (Example 3).
Hydrochloric acid solution with a pH of 1.2:7.65 ml of hydrochloric acid was diluted to 1000 ml with water, and shaken evenly to obtain the solution.
Phosphate buffer with a pH of 4.5:3.40278 g of KH2PO4 was weighed, dissolved in water and diluted to 500 ml, and shaken evenly to obtain the solution.
Phosphate buffer with a pH of 6.8:3.40353 g of KH2PO4 and 0.4428 g of sodium hydroxide were weighed, dissolved in water and diluted to 500 ml, and shaken evenly to obtain the solution.
Appropriate amounts of the compounds of Example 3 and Comparative Example 2 were respectively placed in conical flasks containing 50 ml of water, 50 ml of a hydrochloric acid solution with a pH of 1.2, 50 ml of a phosphate buffer with a pH of 4.5, and 50 ml of a phosphate buffer with a pH of 6.8, respectively, so that the solutions were supersaturated and insoluble matter was clearly visible.
The conical flasks were placed in a thermostatic water bath at 37° C. and an oscillation rate of 120 r/min. Samples were taken at 24 h, 48 h, and 72 h, and detected by liquid chromatography.

[7] = high dose (equimolar to 5 g/kg ebastine)
[8] = low dose (equimolar to 2.5 g/kg ebastine)

SMILES	Purity Day 12 under high temperature ([1]; 12 days) [%]	Purity Day 12 under light ([1]; 12 days) [%]	Purity Day 0 [1] [%]	Purity Day 12 under high humidity ([1]; 12 days) [%]	Characteristic description (hygroscopicity) [2]	Weight gain Percentage [2] [%]	Mortality rate [4]	Time of convulsion and collapse [4]	Time of accelerated respiration [4] [s]	other results
CC(C)(C(=O)O)c1ccc(C(=O)CCCN2CCC(OC(c3ccccc3)c3ccccc3)CC2)cc1 [Comparative Example 2′, carebastine]	99.45	88.11	99.65	99.25						
CC(C)(C(=O)[O-])c1ccc(C(=O)CCCN2CCC(OC(c3ccccc3)c3ccccc3)CC2)cc1.[K+] [Example 1, potassium 2-(4-(4-(4-(diphenylmethoxy)piperidin-1-yl)butyryl)phenyl)-2-methylpropanoate]	98.23	97.48	98.42	98.38	No or almost no hygroscopicity	−0.2	0/10	>600*^▴ s	294 ± 24.42	Mortality rate of mice [3, 7]: 20%; Number of surviving mice [3, 7]: 8; Mortality rate of mice [3, 8]: 0; Number of surviving mice [3, 8]: 10; abnormalities during observation period and in gross anatomical observation ([3]; 14 days): no obvious abnormalities were observed; stability under light ([1]; 12 days): slightly reduced
CC(C)(C)c1ccc(C(=O)CCCN2CCC(OC(c3ccccc3)c3ccccc3)CC2)cc1 [Comparative Example 1, ebastine]							0/10	349* s		MDT ([3]; both, KM, mouse, in vivo, 14 days): > 2.5 g/kg; gender differences (AUC and Cmax, female vs male rats) ([5]; three female vs three male per group): showed gender differences; content of the prototype ([5]; prototype (ebastine) in plasma, single intragastric 10 mg/kg): lower than 3 ng/mL
CC(C)(C(=O)O)c1ccc(C(=O)CCCN2CCC(OC(c3ccccc3)c3ccccc3)CC2)cc1.Cc1ccc(S(=O)(=O)O)cc1 [Example 5, carebastine p-toluenesulfonate]	97.90	97.80	97.90	97.89						
CC(C)(C(=O)O)c1ccc(C(=O)CCCN2CCC(OC(c3ccccc3)c3ccccc3)CC2)cc1.Cc1ccc(S(=O)(=O)O)cc1 [Example 3, 2-(4-(4-(4-(diphenylmethoxy)piperidin-1-yl)butyryl)phenyl)-2-methylpropanoic acid p-toluenesulfonate]					Slightly hygroscopic	0.3	0/10	>600*^▴ s	351 ± 38.16	Mortality rate of mice [3, 7]: 10%; Number of surviving mice [3, 7]: 9; Mortality rate of mice [3, 8]: 0; Number of surviving mice [3, 8]: 10; abnormalities during observation period and in gross anatomical observation ([3]; 14 days): no obvious abnormalities were observed; stability under high temperature, high humidity and light conditions ([1]; 12 days): stable; Purity Day 12 under high temperature ([1]; 12 days, p-toluenesulfonate): 99.94%; Purity Day 12 under light ([1]; 12 days, p-toluenesulfonate): 99.91%; Purity Day 0 ([1]; p-toluenesulfonate): 99.99%; Purity Day 12 under high humidity ([1]; 12 days, p-toluenesulfonate): 99.98%
CC(C)(C(=O)[O-])c1ccc(C(=O)CCCN2CCC(OC(c3ccccc3)c3ccccc3)CC2)cc1.[Na+] [Example 2, sodium 2-(4-(4-(4-(diphenylmethoxy)piperidin-1-yl)butyryl)phenyl)-2-methylpropanoate]							0/10	>600*^▴ s	275 ± 31.41	
CC(C)(C(=O)O)c1ccc(C(=O)CCCN2CCC(OC(c3ccccc3)c3ccccc3)CC2)cc1.CS(=O)(=O)O [Example 4, 2-(4-(4-(4-(diphenylmethoxy)piperidin-1-yl)butyryl)phenyl)-2-methylpropanoic acid methanesulfonate]							0/10	>600*^▴ s	256 ± 24.05	
CC(C)(C(=O)O)c1ccc(C(=O)CCCN2CCC(OC(c3ccccc3)c3ccccc3)CC2)cc1 [Comparative Example 2, 2-(4-(4-(4-(diphenylmethoxy)piperidin-1-yl)butyryl)phenyl)-2-methylpropanoic acid]	97.22	87.28	97.78	97.41	Hygroscopic	6				stability under light ([1]; 12 days): extremely unstable; solubility ([6]; Hydrochloric acid solution with a pH of 1.2, 37° C., 24 h): 0.46 mg/mL (≈ 921 µM); solubility ([6]; Hydrochloric acid solution with a pH of 1.2, 37° C., 48 h): 0.54 mg/mL (≈ 1080 µM); solubility ([6]; Hydrochloric acid solution with a pH of 1.2, 37° C., 72 h): 0.39 mg/mL (≈ 781 µM); solubility ([6]; Phosphate buffer with a pH of 4.5, 37° C., 24 h): 0.20 mg/mL (≈ 400 µM); solubility ([6]; Phosphate buffer with a pH of 4.5, 37° C., 48 h): 0.19 mg/mL (≈ 380 µM); solubility ([6]; Phosphate buffer with a pH of 4.5, 37° C., 72 h): 0.20 mg/mL (≈ 400 µM); solubility ([6]; Phosphate buffer with a pH of 6.8, 37° C., 24 h): 0.03 mg/mL (≈ 60 µM); solubility ([6]; Phosphate buffer with a pH of 6.8, 37° C., 48 h): 0.03 mg/mL (≈ 60 µM); solubility ([6]; Phosphate buffer with a pH of 6.8, 37° C., 72 h): 0.03 mg/mL (≈ 60 µM); solubility ([6]; Water, 37° C., 24 h): 0.72 mg/mL (≈ 1440 µM); solubility ([6]; Water, 37° C., 48 h): 0.52 mg/mL (≈ 1040 µM); solubility ([6]; Water, 37° C., 72 h): 0.52 mg/mL (≈ 1040 µM)
CC(C)(C(=O)O)c1ccc(C(=O)CCCN2CCC(OC(c3ccccc3)c3ccccc3)CC2)cc1 [Comparative Example 3, carebastine hydrochloride]										Characteristic description (hygroscopicity) ([2]; hydrochloride): Extremely hygroscopic; Weight gain Percentage ([2]; hydrochloride): 15.9%; solubility [6]: 0.08 mg/mL; solubility ([6]; pH 6.8): 0.01 mg/mL
